The target in experiment [1] is ligand binding domain of human FXR (Homo sapiens (Human), UniProt Q96RI1). Kind of experiment: FXR ligand binding assay (LanthaScreen TR-FRET, SRC2-2 peptide recruitment). The conditions noted are these: for pEC50: -log EC50, concentration required to produce 50% activation; for Emax: read-out: % Efficacy. On the technique in general: In TR-FRET formats the signal depends on donor and acceptor labels being close together.

For experiment [2], the target named is human Farnesoid X receptor ligand-binding domain/Gal4 DNA binding domain chimera (Homo sapiens (Human), UniProt Q96RI1). Description: Cell-based assay of FXR activation (FXR-UAS-bla HEK 293T beta-lactamase reporter). The conditions noted are these: cellular FXR beta-lactamase reporter assay; for Emax: HEK-293T, read-out: % Efficacy. An outline of the steps:
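HEK 293T cells stably expressing a Gal4-fused human FXR LBD and a UAS-driven beta-lactamase reporter were incubated with serially diluted compounds for 16 h at 37 °C in phenol red-free DMEM with 2% charcoal-stripped FBS. CCF4 FRET read-out: excitation 409 nm, emission 447 nm. pEC50 comes from a 3-parameter logistic fit, and efficacy is given as % of GW4064.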

Where [3] appears, read: extent of activation relative to GW4064.
Where [4] appears, read: FXR-UAS-bla HEK 293T cells, 16 h, pEC50 = -log EC50.

Where two headings read alike, the source gives them in different places.

Chain of human Farnesoid X receptor ligand-binding domain/Gal4 DNA binding domain chimera (Q96RI1 262-486, change not shown): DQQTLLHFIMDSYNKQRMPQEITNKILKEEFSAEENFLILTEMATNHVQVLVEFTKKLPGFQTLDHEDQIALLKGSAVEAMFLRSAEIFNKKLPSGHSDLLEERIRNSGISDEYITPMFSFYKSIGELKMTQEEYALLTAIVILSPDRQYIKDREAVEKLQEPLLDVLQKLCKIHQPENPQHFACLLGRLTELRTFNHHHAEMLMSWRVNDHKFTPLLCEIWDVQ
Chain of human Farnesoid X receptor ligand-binding domain/Gal4 DNA binding domain chimera (P04386 1-147 partner): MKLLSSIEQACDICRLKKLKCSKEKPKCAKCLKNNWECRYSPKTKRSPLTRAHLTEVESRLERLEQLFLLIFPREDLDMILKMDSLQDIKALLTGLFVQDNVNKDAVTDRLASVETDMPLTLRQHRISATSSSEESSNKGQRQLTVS
Chain of ligand binding domain of human FXR (Q96RI1 262-486): as the sequence (Q96RI1 262-486, change not shown) above

Take `O=C(O)Cc1ccc(N2C[C@@H]3C[C@H]2C[C@H]3OCc2c(-c3c(Cl)cccc3Cl)noc2C2CC2)cc1` [Compound I-146, 2-{4-[(1S,4S,5R)-5-{[5-cyclopropyl-3-(2,6-dichlorophenyl)-1,2-oxazol-4-yl]methoxy}-2-azabicyclo[2.2.1]heptan-2-yl]phenyl}acetic Acid]: the pEC50 in experiment [1] is 7.9. Further, the Emax in experiment [1] (setting [3]) was 134%; in experiment [2] (setting [3]), 101%. The molecule also had an EC50 in experiment [2] (setting [4]) of 7.94 nM.
With `O=C(O)c1cc(F)c2nc(N3C[C@H]4C[C@@H]3[C@H](OCc3c(-c5c(Cl)cccc5Cl)noc3C3CC3)C4)sc2c1` [Compound I-65, 2-[(1R,4S,6R)-6-{[5-cyclopropyl-3-(2,6-dichlorophenyl)-1,2-oxazol-4-yl]methoxy}-2-azabicyclo[2.2.1]heptan-2-yl]-4-fluoro-1,3-benzothiazole-6-carboxylic Acid], the pEC50 in experiment [1] is reported as 6.9. For the same molecule, the Emax in experiment [1] is 45%; in experiment [2] (setting [3]), 52%. The molecule further gave an EC50 in experiment [2] (setting [4]) of 100 nM.
For the molecule `O=C(O)c1cc(F)c2nc(N3C[C@@H]4C[C@H]3C[C@@H]4OC(=O)c3c(-c4c(Cl)cccc4Cl)noc3C3CC3)sc2c1` [Compound I-34, 2-[(1S,4S,5S)-5-[5-cyclopropyl-3-(2,6-dichlorophenyl)-1,2-oxazole-4-carbonyloxy]-2-azabicyclo[2.2.1]heptan-2-yl]-4-fluoro-1,3-benzothiazole-6-carboxylic Acid], the pEC50 in experiment [1] is over 4.5. Further, the Emax in experiment [2] (setting [3]) was determined as 15%. Further, the half-maximal effective concentration (EC50) in experiment [2] (setting [4]) is 398 nM.
In experiment [1], `CCCS(=O)(=O)NC(=O)c1ccc(N2C[C@@H]3C[C@H]2C[C@H]3OCc2c(-c3c(Cl)cccc3Cl)noc2C2CC2)cc1F` [Compound I-194, 4-((1S,4S,5R)-5-((5-cyclopropyl-3-(2,6-dichlorophenyl)isoxazol-4-yl)methoxy)-2-azabicyclo[2.2.1]heptan-2-yl)-2-fluoro-N-(propylsulfonyl)benzamide] displayed a pEC50 of 9. The Emax came to 141% in experiment [1] (setting [3]) and 104% in experiment [2] (setting [3]). Further, in experiment [2] (setting [4]), the EC50 was 0.2 nM.
In the same order, the values of `O=C(O)c1ccc(N2C[C@@H]3C[C@H]2C[C@H]3OCc2c(-c3c(Cl)cccc3Cl)noc2C2CC2)c(F)c1` [Compound I-53, 4-[(1S,4S,5R)-5-[[5-cyclopropyl-3-(2,6-dichlorophenyl)-1,2-oxazol-4-yl]methoxy]-2-azabicyclo[2.2.1]heptan-2-yl]-3-fluorobenzoic acid] are 8.7, 145%, 113% and 0.398 nM.
In experiment [1], `CC(C)c1cc(C(=O)O)cc2sc(N3C[C@@H]4C[C@H]3C[C@H]4OCc3c(-c4c(Cl)cccc4Cl)noc3C3CC3)nc12` [Compound I-247, 2-[(1S,4S,5R)-5-{[5-cyclopropyl-3-(2,6-dichlorophenyl)-1,2-oxazol-4-yl]methoxy}-2-azabicyclo[2.2.1]heptan-2-yl]-4-(propan-2-yl)-1,3-benzothiazole-6-carboxylic Acid] showed a pEC50 of 8.5. Also, the Emax worked out at 128% in experiment [1] (setting [3]) and 114% in experiment [2] (setting [3]). In experiment [2] (setting [4]), the EC50 is 2 nM.
In the same order, the values of `O=C(O)c1cc(C2CCC2)c2nc(N3C[C@H]4C[C@@H]3C[C@@H]4OCc3c(-c4c(Cl)cccc4Cl)noc3C3CC3)sc2c1` [Compound I-284, 4-cyclobutyl-2-[(1R,4R,5S)-5-{[5-cyclopropyl-3-(2,6-dichlorophenyl)-1,2-oxazol-4-yl]methoxy}-2-azabicyclo[2.2.1]heptan-2-yl]-1,3-benzothiazole-6-carboxylic Acid] are 9, 116%, 100% and 3.16 nM.
In turn, `O=C(NS(=O)(=O)C1CCOCC1)c1ccc(N2C[C@@H]3C[C@H]2C[C@H]3OCc2c(C3CCC4(CC3)CC4)noc2C2CC2)c(F)c1` [Compound I-230, 4-((1S,4S,5R)-5-((5-cyclopropyl-3-(spiro[2.5]octan-6-yl)isoxazol-4-yl)methoxy)-2-azabicyclo[2.2.1]heptan-2-yl)-3-fluoro-N-((tetrahydro-2H-pyran-4-yl)sulfonyl)benzamide] returned a pEC50 in experiment [1] of 8. Also, the Emax in experiment [1] (setting [3]) worked out at 150%; in experiment [2] (setting [3]) it was 104%. It took 6.31 nM to reach a half-maximal effect in experiment [2] (setting [4]) (EC50).
For `CC(C)(Cc1ccc(N2C[C@@H]3C[C@H]2C[C@H]3OCc2c(-c3c(Cl)cccc3Cl)noc2C2CC2)cc1F)C(=O)O` [Compound I-156, 3-{4-[(1S,4S,5R)-5-{[5-cyclopropyl-3-(2,6-dichlorophenyl)-1,2-oxazol-4-yl]methoxy}-2-azabicyclo[2.2.1]heptan-2-yl]-2-fluorophenyl}-2,2-dimethylpropanoic Acid], the pEC50 in experiment [1] is reported as 7.6. The Emax in experiment [1] (setting [3]) worked out at 128%; in experiment [2] (setting [3]), 105%. In addition, the EC50 in experiment [2] (setting [4]) is 39.8 nM.
In the same order, the values of `O=C(O)c1ccc([N+]2([O-])C[C@@H]3C[C@H]2C[C@H]3OCc2c(-c3c(Cl)cccc3Cl)noc2C2CC2)cc1` (stereo partly drawn) [Compound I-127, (1S,4S,5R)-2-(4-carboxyphenyl)-5-{[5-cyclopropyl-3-(2,6-dichlorophenyl)-1,2-oxazol-4-yl]methoxy}-2-azabicyclo[2.2.1]heptan-2-ium-2-olate] are 9.3, 136%, 104% and 2.51 nM.
In the case of `O=C(NS(=O)(=O)[C@H]1CC[C@H](O)CC1)c1ccc(N2C[C@@H]3C[C@H]2C[C@H]3OCc2c(-c3c(Cl)cccc3Cl)noc2C2CC2)cc1` [Compound I-221, 4-[(1S,4S,5R)-5-{[5-cyclopropyl-3-(2,6-dichlorophenyl)-1,2-oxazol-4-yl]methoxy}-2-azabicyclo[2.2.1]heptan-2-yl]-N-{[(1r,4r)-4-hydroxycyclohexyl]sulfonyl}benzamide], the values for the pEC50 in experiment [1] and in experiment [2] (setting [4]) were 8.8 and 9.5, respectively. Moreover, the “% Efficacy” value in experiment [1] (setting [3]) is listed as 147%; in experiment [2] (setting [3]), 108%.
Molecule `CS(=O)(=O)NC(=O)c1cc(F)c2nc(N3C[C@@H]4C[C@H]3C[C@H]4OC(=O)c3c(-c4c(Cl)cccc4Cl)noc3C3CC3)sc2c1` [Compound I-31, (1S,4S,5R)-2-[4-fluoro-6-(methanesulfonylcarbamoyl)-1,3-benzothiazol-2-yl]-2-azabicyclo[2.2.1]heptan-5-yl 5-cyclopropyl-3-(2,6-dichlorophenyl)-1,2-oxazole-4-carboxylate] had a negative-log EC50 (pEC50) in experiment [1] of 7.4. Also, the Emax was found to be 117% in experiment [1] (setting [3]) and 115% in experiment [2] (setting [3]). In addition, a half-maximal response in experiment [2] (setting [4]) (EC50) required 158 nM.
The matching figures for `Fc1cc(-c2nn[nH]n2)cc2sc(N3C[C@@H]4C[C@H]3C[C@H]4OCc3c(-c4c(Cl)cccc4Cl)noc3C3CC3)nc12` [Compound I-26, 2-[(1S,4S,5R)-5-{[5-cyclopropyl-3-(2,6-dichlorophenyl)-1,2-oxazol-4-yl]methoxy}-2-azabicyclo[2.2.1]heptan-2-yl]-4-fluoro-6-(2H-1,2,3,4-tetrazol-5-yl)-1,3-benzothiazole]: 8.4, 137%, 106% and 25.1 nM.
The matching figures for `O=CN(O)Cc1ccc(N2C[C@@H]3C[C@H]2C[C@H]3OCc2c(-c3c(Cl)cccc3Cl)noc2C2CC2)cc1` [Compound I-161, N-({4-[(1S,4S,5R)-5-{[5-cyclopropyl-3-(2,6-dichlorophenyl)-1,2-oxazol-4-yl]methoxy}-2-azabicyclo[2.2.1]heptan-2-yl]phenyl}methyl)-N-hydroxyformamide]: 6.9, 134%, 102% and 12.6 nM.
As to `Cn1nc(C(=O)O)cc1N1C[C@@H]2C[C@H]1C[C@H]2OCc1c(-c2c(Cl)cccc2Cl)noc1C1CC1` [Compound I-180, 5-[(1S,4S,5R)-5-[[5-cyclopropyl-3-(2,6-dichlorophenyl)-1,2-oxazol-4-yl]methoxy]-2-azabicyclo[2.2.1]heptan-2-yl]-1-methyl-1H-pyrazole-3-carboxylic acid], in experiment [1], the pEC50 is listed as over 6.5. In experiment [2] (setting [4]), this molecule had an EC50 of under 316 nM.
In experiment [1], `C[C@@H]1[C@@H]2C[C@@H](C[C@H]2OCc2c(-c3c(Cl)cccc3Cl)noc2C2CC2)N1c1ccc(C(=O)O)cc1` [Compound I-360, 4-[(1S,3R,4S,5R)-5-[[5-cyclopropyl-3-(2,6-dichlorophenyl)-1,2-oxazol-4-yl]methoxy]-3-methyl-2-azabicyclo[2.2.1]heptan-2-yl]benzoic acid] showed a pEC50 of 8.6. Also, the Emax in experiment [1] (setting [3]) was 117%; in experiment [2] (setting [3]) it was 102%. For the same molecule, the EC50 in experiment [2] (setting [4]) was 0.794 nM.
The matching figures for `CCCCCS(=O)(=O)NC(=O)c1ccc(N2C[C@@H]3C[C@H]2C[C@H]3OCc2c(-c3c(Cl)cccc3Cl)noc2C2CC2)c(F)c1` [Compound I-191, 4-((1S,4S,5R)-5-((5-cyclopropyl-3-(2,6-dichlorophenyl)isoxazol-4-yl)methoxy)-2-azabicyclo[2.2.1]heptan-2-yl)-3-fluoro-N-(pentylsulfonyl)benzamide]: 8.4, 163%, 111% and 0.0398 nM.
As to `O=C(O)C1CC(c2ccc(N3C[C@@H]4C[C@H]3C[C@H]4OCc3c(-c4c(Cl)cccc4Cl)noc3C3CC3)cc2)C1` (stereo partly drawn) [Compound I-151, 3-{4-[(1S,4S,5R)-5-{[5-cyclopropyl-3-(2,6-dichlorophenyl)-1,2-oxazol-4-yl]methoxy}-2-azabicyclo[2.2.1]heptan-2-yl]phenyl}cyclobutane-1-carboxylic Acid], the pEC50 in experiment [1] came to 8.6. For the same molecule, the Emax in experiment [1] (setting [3]) was 134%; in experiment [2] (setting [3]), 106%. This molecule also showed an EC50 in experiment [2] (setting [4]) of 25.1 nM.

One may read the pEC50 as the negative decadic logarithm of the EC50, by convention in mol/L. The low end stands for a large EC50, the high end for a small EC50. By EC50 is commonly meant the midpoint of the concentration-response curve. High values mean a less potent agent, low ones a more potent agent.

These data come from US10793568B2, “Hormone receptor modulators for treating metabolic conditions and disorders” (ARDELYX, INC., priority 2016, dated 2020).
